Data published in patent publication US9056859B2, “Inhibitors of the renal outer medullary potassium channel” (Merck Sharp & Dohme Corp., priority 2010, dated 2015).

biological target: Kir1.1 (ROMK1) (Homo sapiens (Human), UniProt P48048); test: ROMK electrophysiology assay (IonWorks Quattro whole cell voltage clamp); format: cell-based; details: not given
Sequence (P48048 whole entry): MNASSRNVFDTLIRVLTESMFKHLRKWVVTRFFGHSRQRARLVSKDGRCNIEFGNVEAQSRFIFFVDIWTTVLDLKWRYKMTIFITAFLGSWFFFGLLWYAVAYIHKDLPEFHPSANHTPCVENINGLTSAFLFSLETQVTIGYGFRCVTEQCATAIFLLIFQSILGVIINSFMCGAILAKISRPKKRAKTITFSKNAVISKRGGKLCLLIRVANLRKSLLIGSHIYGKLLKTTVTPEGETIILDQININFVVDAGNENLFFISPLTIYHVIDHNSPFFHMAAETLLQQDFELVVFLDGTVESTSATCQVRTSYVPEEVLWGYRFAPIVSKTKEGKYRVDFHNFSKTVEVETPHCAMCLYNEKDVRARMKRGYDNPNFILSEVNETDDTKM

Row | SMILES | IC50
1 | O=C1OCc2cc(CCN3CCCN(C(=O)Cc4ccc(-n5cnnn5)cc4)CC3)ccc21 [Example 11] | 12 nM
2 | COc1cc(CC(=O)N2CCN(CCc3ccc4c(c3C)COC4=O)CC2)c(F)cc1C#N [Example 48] | 35 nM

same assay, conditions: Chinese hamster ovary cells stably expressing Kir1.1; block during voltage step to 0 mV; 6 min compound incubation; read-out: ROMK Electrophysiology Assay IC50

Row | SMILES | IC50
3 | Cc1c(CCN2CCN(C(=O)C3CCc4nc(-n5cnnn5)ccc43)CC2)ccc2c1COC2=O (single isomer, unassigned) [Example 96] | 61 nM
4 | C[C@H]1Cc2cc(CCN3CCN(C(=O)C4CCc5nc(-n6cnnn6)ccc54)CC3)ccc2C(=O)O1 (single isomer, unassigned) [Example 177] | 100 nM
5 | N#Cc1ccc(CCN2CCN(C(=O)Cc3ccc(-n4cnnn4)cc3)CC2)cc1F [Example 39] | 63 nM
6 | Cc1c(CCN2CCN(C(=O)Cc3cc(F)c(C#N)cc3F)CC2)ccc2c1COC2=O [Example 59] | 94 nM
7 | Cc1c(CCN2CCN(C(=O)Cc3ccc(-n4cnnn4)cc3)CC2)ccc(F)c1C#N [Example 122] | 37 nM
8 | Cc1c([C@@H](O)CN2CCN(C(=O)Cc3ccc(-n4cnnn4)nc3)C3CC32)ccc2c1COC2=O (stereo partly drawn) [Example 217, 5-[(1R)-1-hydroxy-2-(5-{[6-(1H-tetrazol-1-yl)pyridin-3-yl]acetyl}-2,5-diazabicyclo[4.1.0]hept-2-yl)ethyl]-4-methyl-2-benzofuran-1(3H)-one] | 56 nM
